{
  "source": "patent US20230233533A1",
  "about": "“COMPOSITIONS, METHODS OF TREATING AND PREVENTING FUNGAL INFECTIONS, AND METHODS OF INHIBITING PRP8 INTEIN EXPRESSION” (Health Research, Inc., priority 2020, published 2023)",
  "system": "C. neoformans H99",
  "assay": "Checkerboard assay",
  "assay_type": "cell-based, Cryptococcus neoformans",
  "procedure": "Compounds were initially dissolved in DMSO and diluted in RPMI-1640-MOPS media four times the targeted final concentration and 50 μl was added per well. The second compound was similarly diluted and 50 μl was added per well, to a final volume of 100 μl/well. C. neoformans […] inoculum (100 μl) prepared from freshly grown cultures and diluted to an absorbance of 0.1 at 530 nm in water and further diluted (1:500) in RPMI-1640-MOPS was added to each well. To determine the fungicidal concentration of a compound, the wells with no visible growth were serially diluted, plated on SDA, and incubated at 30° C. for 48-72 h for the recovery of colony-forming units. Additionally, the cell density of treated and untreated wells was also estimated by reading absorbance at 630 nm using an EL808 reader (Bio-Tek). Percentage of inhibition compared to that of the no-drug-control well was calculated. […] Fractional inhibitory concentration (FIC) index value is calculated as the […]. The FIC index value is then used to categorize the interaction of the two compounds tested. […] Doern, C., “When Does 2 plus 2 Equal 5?A Review of Antimicrobial Synergy Testing,” Journal of Clinical Microbiology 52(12):4124-4128 (2014), which is hereby incorporated by reference in its entirety.",
  "data": [
    {"smiles": "O=C(Nc1ccc(F)cc1)c1nnsc1S(=O)(=O)c1ccc(Cl)cc1", "note": "[6G-318S, 5-[(4-chlorophenyl)sulfonyl]-N-(4-fluorophenyl)-1,2,3-thiadiazole-4-carboxamide]", "values": [
      {"measurement": "MIC", "setting": "Cryptococcus neoformans, H99, 48 h", "value": 1, "unit": "µg/mL"},
      {"measurement": "Effect", "setting": "combination 6G-318S + 5-FC", "value": "Additive (>0.5 to 1 is additive)"},
      {"measurement": "MIC-comb", "setting": "combination 6G-318S + 5-FC, well D6", "value": 0.500, "unit": "µg/mL"},
      {"measurement": "Effect", "setting": "combination 6G-318S + AmB", "value": "Synergistic (FIC index value of ≤0.5 is considered as synergy)"},
      {"measurement": "MIC-comb", "setting": "combination 6G-318S + AmB, well F6", "value": 0.125, "unit": "µg/mL"},
      {"measurement": "Effect", "setting": "combination 6G-318S + IZ", "value": "Additive (>0.5 to 1 is additive)"},
      {"measurement": "MIC-comb", "setting": "combination 6G-318S + IZ, well D6", "value": 0.500, "unit": "µg/mL"},
      {"measurement": "Effect", "setting": "combination 6G-318S + Vor", "value": "Indifferent (>1 to 4 is indifferent)"},
      {"measurement": "MIC-comb", "setting": "combination 6G-318S + Vor, well G3", "value": 0.063, "unit": "µg/mL"}
    ]}
  ]
}
